Six compounds from patent publication US6380226B1, “Salts of an anti-migraine indole derivatives” (Pfizer Inc, priority 1994, dated 2002) can be followed below.

Entries after “also recorded” stand apart in the source; their conditions may differ. Counter-ions that a name gives are not always drawn. Like-named read-outs stand apart in the source and are kept apart here.

Common to all, as to type: physicochemical
Data set [1] is described as follows: Hygroscopicity study: moisture change by weight analysis and Karl Fischer titrimetry. Conditions: for colour change of sample accompanying water uptake: hygroscopicity study, 40° C./75% RH. The method, then:
(§1) Hygroscopicity/Solid State Stability Studies Samples (ca 10 mg) were sieved (250 μm) and then stored at each of the following conditions of temperature (T) and relative humidity (RH) for up to 4 weeks: 30° C. at II, 75 and 90% RH and 40° C. at II, 75 and 90% RH, the required humidities being achieved using the appropriate saturated salt solution in a dessicator. Measurements of water content changes were conducted by weight analysis using a microbalance and by Karl Fischer titrimetry (KFT), and chemical and physical stability evaluation by high performance liquid chromatography (HPLC) and DSC. KFT was performed using a Mitsubishi moisturemeter and ca 10 mg of each sample.

Data set [2] is described as follows: Solid state stability study: chemical and physical stability by HPLC and DSC. Conditions: for solid state instability (associated with water uptake): hygroscopicity studies. The method, then:
as §1, with “DSC. HPLC analyses were” for “DSC. KFT was”, “performed on” for “performed using”, “a LDC isocratic system under the following conditions: column—Novapak C18, 5μm, 15 cm; mobile phase—pH 6.0, 60:40 v/v 0.02M KH2PO4 (0.5% triethylamine): methanol; detection—UV (254 nm); flow rate—1.0 ml/min; injection volume —20 μl; sample 0.1 mg/ml in mobile phase.” for “a Mitsubishi moisturemeter and ca 10 mg of each sample.”

A further data set in a line: Compression studies. Conditions: for behaviour on compression (colour change, melting, punch filming): 5 tonnes for 1 minute, 13 mm punch and die set. The method, then:
Samples (200 mg) were compressed using a bench IR press (Graseby Specac Model 15.011) at 5 tonnes for 1 minute using a 13 mm punch and die set, then assessed for colour change and evidence of melting. Further analysis (DSC and HPLC) was conducted after grinding of the compact using a mortar and pestle.

The nature of data set [3]: Polymorphic conversion by DSC. The method, then: Samples (ca 5 mg) of each form were analysed using a Perkin-Elmer 7 Series thermal analyser at a scanning rate of 20° C. per minute. For identification of the respective endotherms, shown in the representative DSC thermograms of FIGS. 3A and 3B, vide supra. DSC was used to determine both the polymorphic conversions of the β-forms of the hydrobromide and hemisulphate salts to their respective α-forms, and also the conversion of the α-form of the hydrochloride salt to its β-form which is believed to be an anhydrate-hydrate transition.

The mark [4] stands for this setting: listed as α-form of the hydrobromide salt.
Where [5] appears, read: listed as α-form of the hemisulphate salt.
Where [6] appears, read: listed as β-form of the hemisulphate salt.

As to `CN1CCC[C@@H]1Cc1c[nH]c2ccc(CCS(=O)(=O)c3ccccc3)cc12` [α-HBr, 3-(N-Methyl-2(R)-pyrrolidinylmethyl)-5-(2-phenylsulphonylethly)-1H-indole hydrobromide, α-form], the “weight over the course of the hygroscopicity study (in words)” value in data set [1] (30 and 40° C., 11, 75 and 90% RH, up to 4 weeks) is “relatively stable weights”. The “moisture change determined by % weight change” value is −0.45% in data set [1] (T/RH 30/11 (30° C., 11% RH), Week 1); −0.51% in data set [1] (T/RH 30/11, Week 2); “+0.20%” in data set [1] (T/RH 30/11, Week 3); “+0.09%” in data set [1] (T/RH 30/11, Week 4); “+0.08%” in data set [1] (T/RH 30/75, Week 1); “+0.01%” in data set [1] (T/RH 30/75, Week 2). The “moisture change determined by % weight change” value is listed as “+0.17%” in data set [1] (T/RH 30/75, Week 3); “+0.25%” in data set [1] (T/RH 30/75, Week 4); “+0.53%” in data set [1] (T/RH 30/90, Week 1); “+0.46%” in data set [1] (T/RH 30/90, Week 2); “+0.50%” in data set [1] (T/RH 30/90, Week 3); “+0.49%” in data set [1] (T/RH 30/90, Week 4). Further, the “moisture change determined by % weight change” value is recorded as −0.48% in data set [1] (T/RH 40/11, Week 1); “+0.58%” in data set [1] (T/RH 40/11, Week 2); −0.51% in data set [1] (T/RH 40/11, Week 3); −0.49% in data set [1] (T/RH 40/11, Week 4); “+0.06%” in data set [1] (T/RH 40/75, Week 1); “+0.23%” in data set [1] (T/RH 40/75, Week 2). In addition, the “moisture change determined by % weight change” value in data set [1] (T/RH 40/75, Week 3) is 0.00%; in data set [1] (T/RH 40/75, Week 4), “+0.11%”; in data set [1] (T/RH 40/90, Week 1), “+0.87%”; in data set [1] (T/RH 40/90, Week 2), “+1.27%”; in data set [1] (T/RH 40/90, Week 3), “+1.16%”; in data set [1] (T/RH 40/90, Week 4) it was “+1.23%”. Further, in data set [1] (setting [4]), the “hygroscopicity (in words)” value is “lack of hygroscopicity”. Moreover, the “change in DSC profile” value in data set [2] (T=40° C./RH=90% samples) is “No change”. For the same compound, the “chemical stability by HPLC analysis” value in data set [2] (all of the conditions studied (30 and 40° C., 11, 75, 90% RH, up to 4 weeks)) is “confirmed its stability”. Moreover, in “Compression studies” (setting [4]), the “behaviour on compression (colour change, melting, punch filming)” value is “no evidence of a change in sample appearance or punch filming”. For the same compound, the “changes to the thermogram (melting point, enthalpy of fusion) after compression or grinding” value in the data set “Compression studies” (DSC after compression or grinding) was “no changes”. Also, in data set [3] (setting [4]), the polymorphic conversion result was “No polymorphic transitions”.
In the case of `CN1CCC[C@@H]1Cc1c[nH]c2ccc(CCS(=O)(=O)c3ccccc3)cc12` [α-form of the hydrochloride salt, 3-(N-methyl-2(R)-pyrrolidinylmethyl)-5-(2-phenylsulphonylethyl)-1H-indole], the “water uptake (in words)” value in data set [1] (T 40° C., RH 75%, seven days (1 week)) was “a significant amount of water had been taken up; also recorded: picked up a significant amount of moisture”. Also, the “behaviour on compression (colour change, melting, punch filming)” value in the data set “Compression studies” is reported as “did not melt on compaction”. Moreover, the polymorphic conversion result in data set [3] is on record as “converts to the hydrated β-form; also recorded: transformation of the α-form to the β-form”.
In the case of `CN1CCC[C@@H]1Cc1c[nH]c2ccc(CCS(=O)(=O)c3ccccc3)cc12` [α-½H2SO4, 3-(N-methyl-2(R)-pyrrolidinylmethyl)-5-(2-phenylsulphonylethyl)-1H-indole], the “moisture change determined by % weight change” value in data set [1] (T/RH 40/75, Week 1) is “+6.0%”; in data set [1] (T/RH 40/75, Week 2) it was “+4.85%”; in data set [1] (T/RH 40/75, Week 3), “+5.46%”; in data set [1] (T/RH 40/75, Week 4) it was “+4.04%”. Further, the “colour change of sample accompanying water uptake” value in data set [1] (setting [5]) is given as “no concomitant colour”. Moreover, the “hygroscopicity (in words)” value in data set [1] (setting [5]) was “extremely hygroscopic”. For the same compound, in data set [2] (setting [5]), the “solid state instability (associated with water uptake)” value is given as “does not display solid state instability”.
Consider `CN1CCC[C@@H]1Cc1c[nH]c2ccc(CCS(=O)(=O)c3ccccc3)cc12` [β-form of the hydrobromide salt], for which the polymorphic conversion result in data set [3] was “undergoes polymorphic conversion to a higher melting form”.
Turning to `CN1CCC[C@@H]1Cc1c[nH]c2ccc(CCS(=O)(=O)c3ccccc3)cc12` [β-form of the hydrochloride salt, 3-(N-methyl-2(R)-pyrrolidinylmethyl)-5-(2-phenylsulphonylethyl)-1H-indole], the “hygroscopicity (in words)” value in data set [1] (T=40° C./RH=75%, weight change and KFT at week 4) is “non-hygroscopic”. Besides, the “solid state instability (associated with water uptake)” value in data set [2] was “does not display solid state instability; also recorded: no solid state instability being detected”. The “behaviour on compression (colour change, melting, punch filming)” value in “Compression studies” was “melting and sticking of the disk to the punches were observed; also recorded: melts and causes sticking of the disk to the punches”.
`CN1CCC[C@@H]1Cc1c[nH]c2ccc(CCS(=O)(=O)c3ccccc3)cc12` [β-½H2SO4, 3-(N-methyl-2(R)-pyrrolidinylmethyl)-5-(2-phenylsulphonylethyl)-1H-indole]: the “moisture change determined by % weight change” value in data set [1] (T/RH 40/75, Week 1) is “+1.33%”; in data set [1] (T/RH 40/75, Week 2), “+3.79%”; in data set [1] (T/RH 40/75, Week 3) it was “+3.38%”; in data set [1] (T/RH 40/75, Week 4), “+1.69%”. Moreover, the “colour change of sample accompanying water uptake” value in data set [1] (setting [6]) was “change in colour of the sample from cream to yellow”. In data set [1] (relative humidities (RH) higher than 50%), the “hygroscopicity (in words)” value is reported as “very hygroscopic”. The “behaviour on compression (colour change, melting, punch filming)” value in “Compression studies” (setting [6]) was “undergoes a colour change on compression and causes punch-filming during tabletting; also recorded: undergoes a colour change on compression and also causes punch filming on compaction”. Besides, the polymorphic conversion entry in data set [3] (setting [6]) is given as “water uptake can cause polymorphic conversion to an alternative form; also recorded: polymorphic conversion to the α-form”.
